Where a name gives a salt, the structure may show the parent alone. Read-outs that look alike come from different tables or passages of the source.
What was measured:
[1] = system: 5-lipoxygenase; test: Inhibition of antigen-induced, late phase inflammatory cell infiltration in guinea pigs; format: in vivo; settings: 60 minutes before antigen challenge, lung lavage four hours after challenge
Text: Inhibition of Antigen-Induced, Late Phase Inflammatory Cell Infiltration in Guinea Pigs
This model is used to measure the ability of a drug to inhibit 5-lipoxygenase in vivo. In addition to SRS-A, a chemotactic substance LTB₄ is also released by cells in the sensitized guinea pig lung upon stimulation by antigen. As a result there is a measurable influx of cells into the lung. Therefore, an inhibitor of 5-lipoxygenase could reduce the formation of LTB₄ and thereby reduce the cell influx into the lung.
Male outbred Hartley strain albino guinea pigs (250-300 grams) were sensitized to ovalbumin as in the procedure for inhibition of antigen-induced, SRS-A mediated bronchioconstriction in conscious guinea pigs.
Sensitized guinea pigs were fasted and pretreated with pyrilamine and indomethacin as in bronchioconstriction testing procedure. Test compounds, suspended in 1% acacia, were administered 60 minutes before antigen challenge. […] Whole lung lavage was performed with three 5 mL aliquots of normal saline buffered with sodium bicarbonate.
Total cell counts were performed on a Coulter Counter, and differential cell counts were performed. Compounds were evaluated for their ability to alter the antigen-induced total cell influx and, more specifically, neutrophil (PMN) influx.

[2] = system: A23187-Induced LTB₄ Generation; test: Ex vivo inhibition of A23187-induced LTB4 generation in squirrel monkey blood; set-up: species or system Squirrel Monkeys; settings: Primates
Protocol: Ex Vivo Inhibition of A23187-Induced LTB₄ Generation in Squirrel Monkeys.
Incubation of squirrel monkey whole blood with calcium ionophore A23187 stimulates the production of LTB₄. This LTB₄ production can be inhibited by a lipoxygenase inhibitor in vitro by incubating the blood with the inhibitor prior to A23187 challenge. By dosing squirrel monkeys with a lipoxygenase inhibitor prior to withdrawal of a blood sample, one can determine the ability of the lipoxygenase inhibitor to be absorbed into the bloodstream by measuring the inhibition of A23187 induced LTB₄ production ex vivo.
Squirrel monkeys (400-650g) were fasted for 18 hours, anesthetized and dosed either orally or intraperitoneally with test compound. After the desired time period, blood was withdrawn from the femoral vein. The blood (0.5 mL) was heparinized, preincubated at 37°C for 5 minutes and stimulated with A23187 in DMSO to give a final concentration of 30 microM. The reaction was terminated with EGTA (final concentration 10 microM), and the blood centrifuged. Levels of LTB₄ in the plasma were then determined by radioimmunoassay.
The results shown in Table 4 illustrate the ability of a prodrug of type 2a or 2b to be absorbed after ip or po dosing compared to the parent compound 1a.

[3] = molecular target: T1, 5-lipoxygenase (Homo sapiens, UniProt P09917); test: Inhibition of 5-lipoxygenase (5-HETE biosynthesis) in human polymorphonuclear leukocytes; format: cell-based; settings: human PMN's, 5-HETE band vs control; test concentration 1 microM; read-out: Inhibition of 5-LO % at 1 M
T1 construct: Human PMN's (5 x 10⁶ cells/0.5 mL) in pH 7.2 phosphate buffer; endogenous in cells; host or cells: human polymorphonuclear leukocytes (PMN)
T1 sequence (P09917 1-674): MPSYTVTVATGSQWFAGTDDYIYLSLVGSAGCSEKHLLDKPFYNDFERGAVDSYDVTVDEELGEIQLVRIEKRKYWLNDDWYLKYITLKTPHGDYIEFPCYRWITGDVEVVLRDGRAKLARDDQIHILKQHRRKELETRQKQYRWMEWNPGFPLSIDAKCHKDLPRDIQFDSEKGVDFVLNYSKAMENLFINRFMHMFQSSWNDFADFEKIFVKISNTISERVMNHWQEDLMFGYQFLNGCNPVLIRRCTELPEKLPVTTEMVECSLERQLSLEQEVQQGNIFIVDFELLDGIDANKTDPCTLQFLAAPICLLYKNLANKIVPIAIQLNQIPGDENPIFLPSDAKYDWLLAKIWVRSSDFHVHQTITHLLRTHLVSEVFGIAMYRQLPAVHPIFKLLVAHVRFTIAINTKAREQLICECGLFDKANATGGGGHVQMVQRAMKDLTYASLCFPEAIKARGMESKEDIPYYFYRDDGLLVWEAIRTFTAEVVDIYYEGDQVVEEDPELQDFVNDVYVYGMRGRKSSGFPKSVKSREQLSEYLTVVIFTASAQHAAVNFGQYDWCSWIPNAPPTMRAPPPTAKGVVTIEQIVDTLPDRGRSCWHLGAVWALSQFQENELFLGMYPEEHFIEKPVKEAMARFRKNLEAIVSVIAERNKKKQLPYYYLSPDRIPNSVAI
Protocol: Inhibition of 5-Lipoxygenase in Human Polymorphonuclear Leukocytes (PMN's)
The inhibition of 5-lipoxygenase is measured by determining whether and to what extent test compounds inhibit the amount of 5-HETE biosynthesized by human PMN's. 5-HETE biosynthesis serves as a marker for arachidonic acid metabolism by 5-lipoxygenase.
Human PMN's (5 x 10⁶ cells/0.5 mL) in pH 7.2 phosphate buffer containing Ca²⁺ (0.6 mM) and Mg²⁺ (1.0 mM) were incubated with test compound for 15 minutes at 37°C with shaking. Calcium ionophore A23187 (0.25 mM, 0.01 mL) and [¹⁴C] arachidonic acid (0.10 microCi in 0.025 mL 0.01N NaOH) were added, and the mixture incubated another 2.5 minutes. The reaction was terminated by the addition of 0.025 mL of 1.0 N HCl. The mixture was then extracted with ethyl acetate-methylene chloride (2:3) supplemented with 12 microgram/mL cold arachidonic acid to reduce degradation of the metabolites. After concentrating the organic phase, the number of microlitres containing 5 x 10⁴ cpm was determined and that volume applied to a silica gel plate. The plate was developed in methylene-chloride-methanol-acetic acid-water (90:8:1:0.8), air dried, and counted on a Berthold linear TLC analyzer. The integrated area of the 5-HETE band was determined and compared with the control (no drug).
In cases where the IC₅₀ was determined, the result is shown in microM.

[4] = 1 h, 30 mg/kg ip, 60 min after dosing, vehicle per footnotes 2-4, read-out: Percent Inh. Monkey 2
[5] = 1 h, 30 mg/kg ip, 60 min after dosing, vehicle per footnotes 2-4, read-out: Percent Inh. Monkey 3
[6] = 1 h, 30 mg/kg ip, 60 min after dosing, vehicle per footnotes 2-4, read-out: Percent Inh. Monkey #1
[7] = 1 h, 30 mg/kg po, 60 min after dosing, vehicle per footnotes 2-4, read-out: Percent Inh. Monkey 2
[8] = 1 h, 30 mg/kg po, 60 min after dosing, vehicle per footnotes 2-4, read-out: Percent Inh. Monkey #1

Compound	inhibition at 1 µM [3] [%]	further results
Cc1cc(C=Cc2cccs2)cc(C)c1OC(=O)CCC(=O)O [Compound 2a, 2,6-Dimethyl-4-[2-(2-thienyl)ethenyl]phenyl succinate]	–	% Inh. PMN ([1]; 10 mg/kg po): 93%; % Inh. Total Cells ([1]; 10 mg/kg po): 89%; inhibition at 30 mg/kg [2, 4]: 83%; inhibition at 30 mg/kg [2, 5]: 89%; inhibition at 30 mg/kg [2, 6]: 62%; inhibition at 30 mg/kg [2, 7]: 71%; inhibition at 30 mg/kg ([2]; 1 h, 30 mg/kg po, 60 min after dosing, vehicle per footnotes 2-4, read-out: Percent Inh. Monkey 3): 66%; inhibition at 30 mg/kg [2, 8]: 50%; inhibition at 30 mg/kg ([2]; 2 h, 30 mg/kg po, 120 min after dosing, dissolved in dilute alkali, read-out: Percent Inh. Monkey 2): 100%; inhibition at 30 mg/kg ([2]; 2 h, 30 mg/kg po, 120 min after dosing, dissolved in dilute alkali, read-out: Percent Inh. Monkey 3): 61%; inhibition at 30 mg/kg ([2]; 2 h, 30 mg/kg po, 120 min after dosing, dissolved in dilute alkali, read-out: Percent Inh. Monkey #1): 41%; inhibition at 30 mg/kg ([2]; 4 h, 30 mg/kg po, 240 min after dosing, dissolved in dilute alkali, read-out: Percent Inh. Monkey 2): 65%; inhibition at 30 mg/kg ([2]; 4 h, 30 mg/kg po, 240 min after dosing, dissolved in dilute alkali, read-out: Percent Inh. Monkey 3): 100%; inhibition at 30 mg/kg ([2]; 4 h, 30 mg/kg po, 240 min after dosing, dissolved in dilute alkali, read-out: Percent Inh. Monkey #1): 43%
COc1ccc(C=Cc2cc(C(C)C)c(O)c(C(C)C)c2)cc1 [Compound 1av]	71	–
C=CCc1cc(C=Cc2cccnc2)cc(C)c1O [Compound 1ac]	61	–
Cc1cc(C=Cc2ccncc2)cc(C)c1O [Compound 1y]	46	–
CC(C)c1cc(C=Cc2cccc(C(F)(F)F)c2)cc(C(C)C)c1O [Compound 1ay]	34	–
CCc1cc(C=Cc2cccnc2)cc(CC)c1O [Compound 1aa]	59	–
CC(C)c1cc(C=Cc2ccc(F)cc2)cc(C(C)C)c1O [Compound 1ax]	32	–
CCc1cc(C=Cc2ccsc2)cc(CC)c1O [Compound 1u]	66	–
Cc1cc(C=Cc2ccccn2)cc(C)c1O [Compound 1w]	77	–
CC(C)c1cc(C=Cc2cccs2)cc(C(C)C)c1O [Compound 1j]	78	–
COc1cc(C=Cc2cccnc2)cc(C)c1O [Compound 1z]	52	–
C=CCc1cc(C=Cc2ccsc2)cc(C)c1O [Compound 1v]	75	–
C=CCc1cc(C=Cc2cccs2)cc(C)c1O [Compound 1h]	70	% Inh. PMN ([1]; 10 mg/kg ip): 46%; % Inh. Total Cells ([1]; 10 mg/kg ip): 55%
Cc1cc(C=Cc2cccs2)cc(C)c1OC(=O)CN [Compound 2b, 2,6-Dimethyl-4-[2-(2-thienyl)ethenyl]phenyl glycinate hydrochloride]	–	inhibition at 30 mg/kg ([2]; 1 h, 24 mg/kg instead of 30 mg/kg po, 60 min after dosing, dissolved in distilled water, read-out: Percent Inh. Monkey 3): 33%; inhibition at 30 mg/kg [2, 4]: 56%; inhibition at 30 mg/kg [2, 5]: 69%; inhibition at 30 mg/kg [2, 6]: 78%; inhibition at 30 mg/kg [2, 7]: 54%; inhibition at 30 mg/kg [2, 8]: 62%

More lines, main results first:

inhibition at 1 µM [3] [%]	Compound	further results
70	CCc1cc(C=Cc2cccs2)cc(CC)c1O [Compound 1i, 2,6-Diethyl-4-[2-(2-thienyl)ethenyl]phenol]	% Inh. PMN ([1]; 30 mg/kg ip): 74%; % Inh. Total Cells ([1]; 30 mg/kg ip): 51%; % Inh. PMN ([1]; 30 mg/kg po): 51%; % Inh. Total Cells ([1]; 30 mg/kg po): 65%
63	COc1ccc(C=Cc2cc(F)c(O)c(OC)c2)cc1 [Compound 1az]	–
70	COc1cc(C=Cc2ccsc2)cc(C)c1O [Compound 1p]	–
84	Cc1cc(C=Cc2cccs2)cc(Cl)c1O [Compound 1l]	–
57	COc1ccc(C=Cc2cc(C(C)C)c(O)c(C(C)C)c2)cc1OC [Compound 1aw]	–
77	Cc1cc(C=Cc2ccc(Cl)s2)cc(C)c1O [Compound 1b]	–
75	Cc1cc(C=Cc2ccsc2)cc(Cl)c1O [Compound 1s]	–
65	Cc1cc(C=Cc2cccs2)cc(F)c1O [Compound 1k]	–
65	COc1cc(C=Cc2cccs2)cc(F)c1O [Compound 1m]	–
59	COc1cc(C=Cc2ccsc2)cc(F)c1O [Compound 1t]	–
77	COc1cc(C=Cc2ccsc2)cc(OC)c1O [Compound 1q]	–
78	COc1cc(C=Cc2cccs2)cc(OC)c1O [Compound 1n]	–
76	COc1cc(C=Cc2ccc(Cl)s2)cc(C)c1O [Compound 1g]	–
62	Cc1ccc(C=Cc2cc(C)c(O)c(C)c2)s1 [Compound 1c]	–
82	CCc1cc(C=Cc2ccsc2)cc(OC)c1O [Compound 1r]	–

Source: patent EP0334119A1, “Compounds for inhibiting the biosynthesis of lipoxygenase-derived metabolites of arachidonic acid” (BOEHRINGER INGELHEIM PHARMACEUTICALS INC., priority 1988, dated 1989)
